The test system of assay [1] is pooled human plasma. Briefly: Activated partial thromboplastin time (APTT) clotting assay. In kind it is biochemical. Put shortly:
(§1)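 Test compound diluted in HBS (20 mM HEPES, 150 mM NaCl, pH 7.4), mixed with pooled normal human plasma at 37 °C; APTT started with APTT reagent then CaCl2, PT with thromboplastin. APTT value is concentration giving 50% of maximum clotting delay (MCT50); PT IC50 is concentration prolonging clotting time by 50%.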

Assay [2] has as its system fresh blood withdrawn from rats with venous thrombosis. Briefly: Clotting time (aPTT) of fresh blood withdrawn from treated rats. As to conditions: rat, 0.2 mg/kg bolus + 0.00433 mg/kg/min infusion; 20 minutes after administration versus before. In kind it is in vivo. The method, then: FIG. 23 illustrates the clotting times (aPTT) determined for fresh blood withdrawn from rats with venous thrombosis at three time points, the first before drug administration and vessel injury, the second at 20 minutes after FeCl3 application and the third 60 minutes following injection of the respective thrombin inhibitors. Clotting times (aPTT) are shown for different rats administered with each thrombin inhibitor, ZIP4 for MH2-wZIP4, ZIP5 for MH2-wZIP5 and T218 for BRI-T218. Dosage levels for every compound were 0.2 mg/kg for the single-bolus injection and 0.00433 mg/kg/min for the maintenance infusion,
Terminal blood samples were analyzed for aPTT within 15 to 30 minutes of collection using a Coag DX Analyzer with aPTT citrate cartridges (IDEXX Laboratories, Westbrook, Me., USA).

For assay [3], the system named is pooled human plasma. Briefly: Prothrombin time (PT, thromboplastin) clotting assay. In kind it is biochemical. The gist of the method:
as §1

Assay [4] concerns FeCl3-induced arterial thrombosis (carotid artery). Briefly: FeCl3-induced arterial model of thrombosis in rats (time to occlusion). In kind it is in vivo. As to conditions: rat, single bolus 0.2 mg/kg plus maintenance infusion 0.00433 mg/kg/min. As for the experimental part: Male Sprague-Dawley rats (250-310 g; Charles River Laboratories, St-Constant, QC, Canada) were acclimated for at least 3 days prior to the start of the study. Animals were housed in microisolator cages and were kept on a 12-hr light/dark cycle with constant temperature and humidity. Food and water were provided ad libitum. Various anti-thrombotic agents and peptides of this invention were dissolved in saline (0.9% sodium chloride) prior to use.
The FeCl3-induced arterial model of thrombosis in rats was also generated as described by Wang and Xu (Wang 2005) with some modifications (Couture 2011). Briefly, rats were anesthetized with a 2.5% isoflurane/oxygen mixture and placed on a heat source (35-37° C.). An incision was made over the right carotid artery, and a segment of the artery was exposed via blunt dissection. A Doppler flow probe (Model MA1PRB, Transonic System Inc., Ithaca, N.Y., USA) connected to a perivascular flow module (TS420, Transonic System Inc., Ithaca, N.Y., USA) was then attached to the carotid artery to monitor blood flow. Data were collected and analyzed using the MP100 Biopac™ Systems (Biopac Systems, Santa Barbara, Calif., USA), and the AcgKnowledge™ software (Biopac Systems, Santa Barbara, Calif., USA), respectively. Baseline blood flow was recorded for a minimum of 15 minutes until readings stabilized. Aquasonic 100 gel (Parker Laboratories, Inc., Fairfield, N.J., USA) was added to help conductivity and any fluid accumulating at the site of surgery was removed during data sampling without touching the probe. […] One minute after drug administration, a piece of filter paper (Gel Blot Paper, GB003, Whatman, Piscataway, N.J., USA; 7 mm diameter) saturated with 20% FeCl3 (EMD Chemicals Inc., Gibbstown, N.J., USA) was placed on the exposed surface of the carotid artery and incubated for 3.5 minutes. During the application of FeCl3, the neck region was covered with aluminum foil. At the end of the incubation period, the filter paper was removed and the exposed carotid was covered with a saline-soaked gauze. Time to occlusion was defined as the time from the application of FeCl3 until blood flow decreased to zero. […] Preparing and processing each animal took approximately 1 hr and 7 animals were treated each day. Control animals were always included when the other treatments were being administered. For this reason, the number of animals in the control group is higher than that of the treated-groups.
Statistical analysis was conducted using GraphPad™ Prism (GraphPad Software Inc., San Diego Calif., USA). Data were analyzed using one-way ANOVA with post-hoc Bonferroni correction for multiple comparisons. The relationship between thrombus weight and thrombus volume was determined by linear regression. […]

Data on 1 compound can be found in US10155802B2, “Locally-active anticoagulants and anti-inflammatory agents” (priority 2011, dated 2018).

For orientation: IC50 means the concentration needed to halve the response being measured.

Take `CC[C@H](C)[C@H](N)C(=O)N[C@@H](CCCNC(=N)N)C(=O)N[C@@H](Cc1ccccc1)C(=O)N[C@H](C(=O)N[C@@H](CC(=O)O)C(=O)NCC(=O)N[C@@H](CCC(=O)O)C(=O)N[C@@H](Cc1c[nH]c2ccccc12)C(=O)N[C@H](C(=O)N[C@@H](Cc1c[nH]c2ccccc12)C(=O)N[C@@H](CC(=O)O)C(=O)N[C@@H](CC(=O)O)C(=O)N[C@@H](C)C(=O)N[C@H](C(=O)N[C@@H](CCCCN)C(=O)N[C@H](C(=O)N[C@@H](Cc1c[nH]c2ccccc12)C(=O)N[C@H](C(=O)N[C@@H](Cc1c[nH]c2ccccc12)C(=O)N[C@H](C(=O)N[C@@H](CCC(=O)O)C(=O)NCC(=O)N[C@@H](CC(=O)O)C(=O)N[C@@H](Cc1ccccc1)C(=O)N[C@@H](CCC(=O)O)C(=O)N[C@@H](CCC(=O)O)C(=O)N[C@H](C(=O)N1CCC[C@H]1C(=O)N[C@@H](CCC(=O)O)C(=O)N[C@@H](CCC(=O)O)C(=O)N[C@@H](Cc1ccc(O)cc1)C(=O)N[C@@H](CC(C)C)C(=O)N[C@@H](CCC(N)=O)C(=O)O)[C@@H](C)CC)[C@@H](C)O)[C@@H](C)O)[C@@H](C)O)[C@@H](C)O)[C@@H](C)O)[C@@H](C)O` [MH2-wZIP4]: the EC50 in the assay with pooled human plasma [1] (37° C., concentration for 50% of maximum delay in clotting time, read-out: MTC50 (APTT)) is 8 µM. Besides, the “dose response in APTT assays” value with pooled human plasma [1] (in words) is recorded as “saturable dose response”. In addition, in assay [2], the “clotting time (aPTT), systemic anticoagulant effect” value is recorded as “only a slight prolongation of the clotting time (aPTT)”. The “Plateau of prothrombin time dose response” value in the assay on pooled human plasma [3] (37° C.) is recorded as “(Plateau at >900 nM)”. Besides, 1 µM corresponded to half-maximal inhibition with pooled human plasma [3] (37° C., concentration that prolongs clotting time by 50%) (IC50). Besides, in the assay with pooled human plasma [3] (in words), the “anticoagulant effect in PT versus APTT assays” value is “greatly-reduced anticoagulant potency in both the PT and APTT assays”. In assay [4], the “anti-thrombotic efficacy in arterial model” value was “increases the efficacy”.
